Results on one molecule are retold here after patent US6017958A, “Method of treating malignant tumors with thyroxine analogues having no significant hormonal activity” (Octamer, Inc., priority 1997, dated 2000).

Each structure is given as a SMILES string. Several values for one entry are separate records, joined by “and”; a condition that tells them apart may be missing. Equal values may be shown once.

A short description of series [1]: Serum half-life and bioavailability of 14C-DIME. It counts as in vivo, mouse. The protocol:
Aliquots (50 μL) of blood were assayed in a liquid scintillation counter and data expressed as microgram-equivalents per mL. The blood level data were analyzed by the RSTRIP method (Micromath, Salt Lake City, Utah).

The next series deals with E-ras 20 cells. Nature of the series: cells. It counts as in vitro ADME, bovine. As to conditions: Bos taurus, 24 hours, read-out: Extracellular DIME (concentration that causes 100% growth inhibition). The protocol:
(§1) Monolayer cultures in 9.6 cm^2 wells (3 ml medium) were exposed to [^14 C]-DIME (10.55 mCi/mmol) for 24 hours, then washed 7 times with 1 ml medium containing unlabeled DIME. The cells were dissolved in 1 ml of 4% Na2 CO3 and 0.2 M NaOH and radioactivity measured by scintillation counting. Cell volume was determined by hematocrit and cell counting from parallel wells treated with unlabeled DIME.
(§2) A striking property of DIME is its apparent selectivity for tumors in vivo. We performed drug metabolism and cellular DIME uptake tests to further characterize this property. Incubation of cells in culture with [^14 DIME, under conditions described previously, Bauer et al., 1996, "Modification of growth related enzymatic pathways and apparent loss of tumorigenicity of a ras-transformed bovine endothelial cell line by treatment with 5-iodo-6-amino-1,2-benzopyrone (INH2 BP)" Intl. J. Oncol. […] As shown in Table 9 the tumorigenic transformed cells in general took up DIME more rapidly than nontransformed cells (CV-1) or cells that were less sensitive to killing-by DIME (e.g. E-ras 20). […] On the other hand homogenates of organs of normal mice actively metabolize (de-esterify) DIME as illustrated in Table 10.

Another series deals with CV-1 cells. Nature of the series: cells. As to conditions: Cercopithecidae; CV-1, 24 hours; read-out: Extracellular DIME (concentration that causes 100% growth inhibition). It counts as in vitro ADME. How it is done: as §1, §2
A further series concerns CV-1-Transformed cells. Nature of the series: cells. It counts as in vitro ADME. As to conditions: 24 hours, read-out: Extracellular DIME (concentration that causes 100% growth inhibition). The protocol: as §1, §2
In series [2] the test system is MDA-MB-231 cells. Nature of the series: cells. It is filed as in vitro ADME. Particulars: Homo sapiens; MDA-MB-231, 24 hours; read-out: Extracellular DIME (concentration that causes 100% growth inhibition). How it is done:
as §1, §2

In series [3] the test system is MDA-MB-231 cells. Nature of the series: Flow cytometry / M phase block. It is filed as cell-based, human. How it is done: The MDA-MB-231 cell line was obtained from ATCC (Rockville, Md., USA) and cells were cultured in T-75 flasks at 37° C. in Minimum Essential Medium-alpha, supplemented with 10% FCS. In controls, not receiving DIME, 0.1 μg/ml colcemid was added to cultures for 4 hrs prior to the collection of metaphase-blocked cells and preparation of cell spreads. […] Cells (10^7) were isolated from T-75 trypsinization for 5 min with 0.025% trypsin, and sedimented by centrifugation, resuspended and kept in 10 ml of 75 mM KC1 at 37° C. for 10 min, resedimented, and fixed in 10 ml methanol-acetic acid, with four successive changes of methanol-acetic acid. An aliquot of the final cell suspension (100 μl) was dropped on ethanol-cleaned slides and air-dried.
Cells exposed to different treatments were grown to confluence, trypsinized, and washed with phosphate buffered saline (PBS). For nuclear analysis, cells were fixed in Vindelov Citrate cell buffer: sucrose 250 mM, trisodium citrate. 2H20 40 mM, DMSO 50 ml in 1000 ml solution, pH 7.6. Normal human lymphocytes obtained from blood were used as controls. Each cell sample and control was counted with a hemacytometer and the cell concentration was adjusted to 2×10^6 cells/ml. Two million cells from each cell line in a total volume of 2 ml were washed twice with fresh PBS, treated with 200 μg/ml RNAase at 37° C. for 30 min, and stained with 10 μg/ml propidium iodide for 45 min. Flow cytometric analysis was performed on a FACScan benchtop flow cytometer (Becton-Dickinson, San Jose, Calif., USA) equipped with an air-cooled argon laser tuned to 488 nm. Twenty thousand events were collected as six parameter list mode data for analysis and archival storage. Two light scatter parameters (forward and side), propidium iodide fluorescence measured at 575/26 nm and above 620 nm, and doublet discrimination by fluorescence pulse width and area were acquired at 1024 data channel resolution. Acquisition threshold was set on propidium iodide positive events above channel 100. Gating to exclude small debris, large clumps and cell doublets was done post acquisition.
(A flow cytometer gives signals particle by particle.)

For series [4], the system named is MDA-MB-231 cells. As to the kind of experiment: Immunocytochemistry of mitotic spindle and spindle-associated proteins. It is filed as cell-based, human. As to conditions: 18 hrs. The protocol: Cells were fixed in methanol at -20° C. for 5 min. The primary antibody was mouse monoclonal anti-beta tubulin (Amersham) and secondary antibody from goat, conjugated to fluorescein isothiocyanate from Cappel (Durham, N.C., USA). The DNA of nuclei was stained by 10 min of incubation in 0.05 μg/ml 4'-6-diamidono-2-phenylindole (DAPI). Stained cells were viewed with either a Zeiss 40xPlan-Neofluar or a Nikon 60xPlanApo objective. For classification of cells in the mitotic phase, prophase and metaphase were combined into a single category, because it was difficult to distinguish late prophase from metaphase.
In preliminary studies (data not shown) we have also studied the behavior of certain spindle-associated proteins by the immunocytologic technique.

As for `COC(=O)c1cc(I)c(Oc2ccc(OC)cc2)c(I)c1` [Compound 1, Methyl 3,5-diiodo-4-(4'-methoxyphenoxy)benzoate], the “i.v. serum half-life (t1/2)” value in series [1] (i.v., 24.5 mg/kg) is 2 to 2.5 h. Besides, the oral bioavailability in series [1] (oral 126 mg/kg vs i.v. 24.5 mg/kg, listed as DIME, 126 mg/kg) was 83% and 87%. The “half-life (t1/2)” value in series [1] (serum) lay within 2 to 2.5 h. The IC100 with E-ras 20 cells is 10 µM. For the same molecule, the IC100 in the series on CV-1 cells was found to be 2 µM. Also, in the series on CV-1-Transformed cells, the IC100 is 2 µM. Besides, the IC100 in the series on MDA-MB-231 cells [2] was 2 µM. Moreover, the “M phase block (nuclei with G2 content of DNA)” value in the series with MDA-MB-231 cells [3] (18 hrs of drug exposure) is listed as “nuclei with a G2 content of DNA had accumulated, indicating M phase block”. In the series on MDA-MB-231 cells [3] (colcemid 0.1 μg/ml, 4 hrs), the “cell cycle block in M phase, comparison of DIME and colcemid” value is recorded as “indistinguishable with respect to the cell cycle block in M phase”. The “mitotic spindle / tubulin distribution” value in the series with MDA-MB-231 cells [4] (1 μM) is on record as “striking abnormalities of-tubulin distribution”. In the series on MDA-MB-231 cells [4] (1 μM, data not shown), the “Cyclin B-microtubule-spindle association” value is given as “remained unchanged”, the cdc-2 kinase-spindle binding entry is “induction of cdc-2-kinase-spindle binding”, the number of centrosomes entry is “unable to detect abnormal number of centrosomes” and the pericentrin staining pattern result was “did not alter the pattern of staining”. The “protein phosphatase 2a-spindle association” value in the series with MDA-MB-231 cells [4] (1 μn (so in the source), data not shown) is recorded as “not influenced by drug-treatment”.
